Calls of active or inactive are those of the source.
Legend:
[1] = inhibitors of intracellular T. cruzi replication, confirmation, NIH3T3 host cells, beta-gal luminescence (AID 2044); assay type: functional, cell-based;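 further: intracellular parasites grown in NIH/3T3 mouse fibroblasts as host cells; luminescent beta-galactosidase reporter signal from transgenic T. cruzi replicating inside host cells; inhibitors lower the luminescence signal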
[2] = biological target: T1, Zinc finger protein mex-5 (Caenorhabditis elegans, UniProt Q9XUB2); experiment: MEX-5/TCR-2 RNA interaction inhibitors, dose response, biochemical, C. elegans, fluorescence polarization (AID 1960)
T1 sequence (Q9XUB2 whole entry): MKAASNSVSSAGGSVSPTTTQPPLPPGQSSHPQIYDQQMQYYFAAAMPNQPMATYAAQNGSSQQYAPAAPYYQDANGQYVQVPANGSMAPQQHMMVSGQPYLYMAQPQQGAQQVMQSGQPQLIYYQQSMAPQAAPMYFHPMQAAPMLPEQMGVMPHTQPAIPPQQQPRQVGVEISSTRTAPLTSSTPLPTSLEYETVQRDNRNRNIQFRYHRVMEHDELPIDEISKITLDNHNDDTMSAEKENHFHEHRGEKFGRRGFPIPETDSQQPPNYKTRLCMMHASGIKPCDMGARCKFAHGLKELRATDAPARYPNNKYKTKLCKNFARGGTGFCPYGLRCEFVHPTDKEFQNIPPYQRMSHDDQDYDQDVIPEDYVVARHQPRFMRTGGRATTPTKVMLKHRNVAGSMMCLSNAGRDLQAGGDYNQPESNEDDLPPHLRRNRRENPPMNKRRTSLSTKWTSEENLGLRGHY

[3] = biological target: T2, RNA-binding protein pos-1 (Caenorhabditis elegans, UniProt G5EF15); experiment: inhibitors of POS-1/mex-3 RNA binding, dose response, biochemical, fluorescence polarization (AID 1964);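 further: purified POS-1 fused to maltose binding protein made in E. coli; potency of compounds blocking POS-1 binding to fluorescent RNA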
T2 sequence (G5EF15 whole entry): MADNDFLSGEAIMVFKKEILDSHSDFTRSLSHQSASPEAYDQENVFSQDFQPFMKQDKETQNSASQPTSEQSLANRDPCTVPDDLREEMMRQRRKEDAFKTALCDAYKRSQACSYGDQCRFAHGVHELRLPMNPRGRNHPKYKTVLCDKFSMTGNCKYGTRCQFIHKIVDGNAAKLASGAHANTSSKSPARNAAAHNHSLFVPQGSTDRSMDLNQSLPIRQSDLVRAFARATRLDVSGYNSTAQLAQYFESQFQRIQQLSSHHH

[4] = cytotoxicity toward NIH3T3 fibroblasts, dose response, counter-screen, cell-based, ATP luminescence, mouse fibroblasts (AID 2010); assay type: functional;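 further: cells exposed to compound for about 90 hours before reading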
[5] = intracellular Trypanosoma cruzi inhibitors in host cells – cell-based, plate reader, cherry-pick samples, set 3, dose response (AID 651818); assay type: functional;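 further: compounds incubated with infected cells for about four days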
[6] = biological target: T3, High affinity choline transporter 1 (Homo sapiens, UniProt Q9GZV3); experiment: CHT inhibitors, dose response, cell-based, 5-point CRC, membrane potential dye (AID 504840); assay type: functional
T3 sequence (Q9GZV3 whole entry): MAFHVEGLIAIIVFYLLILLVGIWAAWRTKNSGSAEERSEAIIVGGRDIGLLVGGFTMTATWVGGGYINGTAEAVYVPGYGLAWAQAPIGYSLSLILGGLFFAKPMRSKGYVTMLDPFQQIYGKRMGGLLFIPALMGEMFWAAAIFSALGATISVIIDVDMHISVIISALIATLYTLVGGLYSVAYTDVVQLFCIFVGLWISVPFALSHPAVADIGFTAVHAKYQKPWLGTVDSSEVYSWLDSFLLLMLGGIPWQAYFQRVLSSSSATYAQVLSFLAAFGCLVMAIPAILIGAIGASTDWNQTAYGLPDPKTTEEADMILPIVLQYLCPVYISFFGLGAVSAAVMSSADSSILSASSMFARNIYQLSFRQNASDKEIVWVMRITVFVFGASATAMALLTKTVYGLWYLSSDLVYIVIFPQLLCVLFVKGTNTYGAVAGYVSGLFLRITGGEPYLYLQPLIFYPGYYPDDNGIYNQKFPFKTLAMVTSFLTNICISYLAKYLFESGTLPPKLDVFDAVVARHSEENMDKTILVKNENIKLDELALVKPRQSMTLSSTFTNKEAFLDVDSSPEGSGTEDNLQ

Cytochrome P450 2C19 = Cytochrome P450 2C19 (Homo sapiens, UniProt P33261); experiment: Cytochrome panel assay with activity outcomes. Panel member name: p450-cyp2c19 Compounds with AC50 equal or less than 10 uM are considered active; assay type: functional; conditions: read-out: AC50
Cytochrome P450 2C9 = Cytochrome P450 2C9 (Homo sapiens, UniProt P11712)
Cytochrome P450 3A4 = Cytochrome P450 3A4 (Homo sapiens, UniProt P08684); conditions: Potency;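 further: confirmatory qHTS run detecting inhibitors and substrates of CYP3A4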
[7] = HepG2 cell cytotoxicity, dose response, cytotoxicity control, cherry-picked samples (AID 1159577); assay type: functional, cell-based
[8] = P. falciparum Dd2 growth inhibitors, dose response, SYBR Green, cherry-picked samples (AID 1159567); assay type: functional, cell-based
[9] = cytotoxicity in HEK-293T cells, dose response, cytotoxicity control for TCR NF-kB inhibitor project, luminescence, T-cell screen hits (AID 489026); assay type: functional, cell-based;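 further: cells exposed to compound about 14 hours before the viability readout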
[10] = biological target: Heat shock protein HSP 90-alpha (Homo sapiens, UniProt P07900); assay type: functional, organism-based

Cytochrome P450 2C19, sequence (P33261 whole entry): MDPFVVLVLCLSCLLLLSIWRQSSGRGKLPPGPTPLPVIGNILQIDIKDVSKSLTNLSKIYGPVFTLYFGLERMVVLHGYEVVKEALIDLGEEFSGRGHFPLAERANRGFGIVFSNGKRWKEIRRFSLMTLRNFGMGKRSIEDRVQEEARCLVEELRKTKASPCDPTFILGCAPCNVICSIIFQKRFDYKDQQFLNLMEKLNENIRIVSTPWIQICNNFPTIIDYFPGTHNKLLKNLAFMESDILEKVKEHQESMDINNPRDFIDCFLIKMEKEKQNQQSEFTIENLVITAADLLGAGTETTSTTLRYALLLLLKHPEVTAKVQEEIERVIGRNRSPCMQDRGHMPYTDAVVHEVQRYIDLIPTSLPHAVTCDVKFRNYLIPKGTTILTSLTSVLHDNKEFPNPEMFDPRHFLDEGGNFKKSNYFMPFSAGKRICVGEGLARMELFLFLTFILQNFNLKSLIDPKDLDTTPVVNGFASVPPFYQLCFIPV
Cytochrome P450 2C9, sequence (P11712 whole entry): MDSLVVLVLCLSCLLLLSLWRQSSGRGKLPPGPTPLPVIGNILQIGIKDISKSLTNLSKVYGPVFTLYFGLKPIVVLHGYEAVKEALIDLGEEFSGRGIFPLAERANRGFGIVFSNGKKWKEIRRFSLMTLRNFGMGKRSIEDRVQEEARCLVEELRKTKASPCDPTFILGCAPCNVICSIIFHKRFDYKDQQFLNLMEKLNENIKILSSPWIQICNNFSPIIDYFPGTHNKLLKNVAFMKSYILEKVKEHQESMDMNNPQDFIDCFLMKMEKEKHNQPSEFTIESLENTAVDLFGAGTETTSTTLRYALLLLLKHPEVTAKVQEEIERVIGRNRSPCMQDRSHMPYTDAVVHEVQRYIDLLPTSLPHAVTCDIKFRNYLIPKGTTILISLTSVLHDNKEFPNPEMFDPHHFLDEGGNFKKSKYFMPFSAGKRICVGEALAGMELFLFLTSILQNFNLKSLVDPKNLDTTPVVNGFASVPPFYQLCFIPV
Cytochrome P450 3A4, sequence (P08684 whole entry): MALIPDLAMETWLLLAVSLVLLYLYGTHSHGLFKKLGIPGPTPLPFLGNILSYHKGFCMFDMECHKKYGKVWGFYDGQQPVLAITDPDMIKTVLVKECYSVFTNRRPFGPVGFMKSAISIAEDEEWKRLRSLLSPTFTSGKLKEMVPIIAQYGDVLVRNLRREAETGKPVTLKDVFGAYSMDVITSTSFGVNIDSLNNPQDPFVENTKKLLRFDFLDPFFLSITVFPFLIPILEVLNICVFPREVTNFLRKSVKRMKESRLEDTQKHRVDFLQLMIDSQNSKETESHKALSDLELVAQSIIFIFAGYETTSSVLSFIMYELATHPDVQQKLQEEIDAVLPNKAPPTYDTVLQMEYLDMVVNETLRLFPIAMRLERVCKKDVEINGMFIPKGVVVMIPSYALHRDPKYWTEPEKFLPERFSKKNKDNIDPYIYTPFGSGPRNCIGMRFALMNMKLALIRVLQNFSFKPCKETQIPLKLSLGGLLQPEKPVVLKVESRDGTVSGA

## Cc1nn(-c2ccccc2)c(N2CCCC2)c1/C=N/NC(=O)c1cc(-c2cccnc2)nc2ccccc12
[1]
  EC50: 0.306 µM (active)
[2]
  EC50: > 300 µM (not active)
[3]
  EC50: > 300 µM (not active)
[4]
  EC50: 32.8 µM (active)

## Cc1noc(C)c1NC(=O)Nc1cccc2c1O[C@H](CN(C)Cc1ccc(C(=O)Nc3ccccc3N)cc1)[C@@H](C)CN([C@@H](C)CO)C2=O
[5]
  AC50: 3.76 µM (active)

## Cc1ccc(NC(=O)CNC(=O)c2cccc(Cl)c2)nc1
[6]
  IC50: 13.1 µM (active)

## Cc1cc(Cl)ccc1OCCCC(=O)N1CCN(C(=O)c2ccco2)CC1
[6]
  IC50: 2 µM (active)

## CCC(=S)/C=C1\Sc2ccc3ccccc3c2N1CCCS(=O)(=O)O
Cytochrome P450 2C19
  AC50: 28.2 µM (inconclusive)
[2]
  EC50: > 300 µM (not active)
Cytochrome P450 2C9
  AC50: 20 µM (inconclusive)
[3]
  EC50: > 300 µM (not active)

## Cn1c(N)c(C(=O)COC(=O)c2ccnc3ccccc23)c(=O)n(C)c1=O
Cytochrome P450 3A4
  AC50: 15.8 µM (inconclusive)

## COc1ccc2c3c(n(C)c2c1)[C@H](CO)N(C(=O)Nc1ccccc1F)CC31CN(C)C1
[7]
  AC50: 18.5 µM (active)
[8]
  AC50: 6.4 µM (active)

## NC(=O)c1snnc1-c1ccccc1
[2]
  EC50: > 300 µM (not active)
[3]
  EC50: > 300 µM (not active)

## Oc1c(Cl)cc(Cl)cc1/C=N/c1ccc(Br)cc1
[6]
  IC50: 13.2 µM (active)

## Cc1ccc(S(=O)(=O)Nc2ccc3c(c2)CC(=O)N([C@H](C)CO)C[C@@H](C)[C@H](CN(C)Cc2ccc(Cl)c(Cl)c2)O3)cc1
[5]
  AC50: 2.04 µM (active)

## CC(C)CC#Cc1ccc2c(c1)O[C@@H](CN(C)Cc1cccc(F)c1)[C@H](C)CN([C@H](C)CO)S2(=O)=O
[7]
  AC50: 17.1 µM (active)
[8]
  AC50: 4.19 µM (active)

## O=C(c1ccc(C[S+]([O-])c2ccccc2Cl)o1)N1CCN(c2ccccn2)CC1 (configuration not stated)
[9]
  IC50: > 80 µM (inactive)

## C[C@@H]1CN([C@H](C)CO)C(=O)Cc2cc(NC(=O)Nc3ccc(C(F)(F)F)cc3)ccc2O[C@@H]1CN(C)Cc1ccccc1
[5]
  AC50: 1.94 µM (active)

## C[C@@H]1CN([C@H](C)CO)C(=O)c2cccc(NC(=O)Nc3ccccc3)c2O[C@H]1CN(C)Cc1ccc(C(=O)Nc2ccccc2N)cc1
[5]
  AC50: 2.02 µM (active)

## O=C(OCC(=O)C12CC3CC(CC(C3)C1)C2)c1ccc(O)cc1
[10]
  AC50: 1.04 µM (active)

## C[C@@H]1CN([C@@H](C)CO)C(=O)c2cccc(NC(=O)C3CCCCC3)c2O[C@H]1CN(C)Cc1ccc(Oc2ccccc2)cc1
[5]
  AC50: 1.71 µM (active)

## O=C(COC(=O)CCc1c[nH]c(=O)[nH]1)Nc1ccccc1Cl
[2]
  EC50: 53.5 µM (active)
[3]
  EC50: > 300 µM (not active)

Source: ChEMBL document CHEMBL1201862, “PubChem BioAssay data set” (2004)
